# Columns and labels:
# CYP3A4 = CYP3A4 induction in human hepatocytes; assay type: in vitro ADME
# [1] = Predicted plasma concentrations in PAH patients at 75 mg per day; assay type: in vivo, human; settings: macitentan 75 mg per day; for predicted peak plasma concentration: PAH patients, based on PK Sub-study, assuming dose linearity; for expected free plasma concentration: taking into account protein binding
# Method: Predicted peak plasma concentrations of macitentan and ACT-132577 in PAH patients at 75 mg per day dose are expected to be around 5 μM and 14 μM, respectively, based on the PK Sub-study and assuming dose linearity. […] It is not likely that these unbound concentrations of macitentan and ACT-132577 result in any inhibition of BCRP in the liver or kidney or induction of CYP3A4 enzyme in the liver.
# [2] = Drug-drug interaction in general
# [3] = cited from earlier work
# ET receptors = settings: cited from earlier work
# human PXR = target: T1, human PXR (Homo sapiens, UniProt O75469); test: Activation of human PXR; assay type: cell-based
# T1 sequence (O75469 1-434): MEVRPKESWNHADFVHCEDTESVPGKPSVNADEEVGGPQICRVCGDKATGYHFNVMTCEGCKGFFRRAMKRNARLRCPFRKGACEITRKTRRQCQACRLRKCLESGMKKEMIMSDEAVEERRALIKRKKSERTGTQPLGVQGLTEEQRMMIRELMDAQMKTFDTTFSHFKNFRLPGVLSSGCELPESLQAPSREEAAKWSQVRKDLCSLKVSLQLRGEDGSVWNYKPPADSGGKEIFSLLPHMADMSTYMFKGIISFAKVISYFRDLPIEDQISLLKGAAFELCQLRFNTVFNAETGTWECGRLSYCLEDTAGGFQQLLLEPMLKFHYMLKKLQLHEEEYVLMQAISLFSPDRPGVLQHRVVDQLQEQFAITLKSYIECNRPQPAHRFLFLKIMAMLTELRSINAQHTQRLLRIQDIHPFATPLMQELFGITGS
# [4] = continuous IV infusion, patients with PVR greater than 1200 dynes·s·cm^−5 before PEA surgery; cited from earlier work
# BCRP transporters = target: T2, BCRP transporters (Homo sapiens, UniProt Q9UNQ0); test: Effect of macitentan on rosuvastatin pharmacokinetics; assay type: in vivo; settings: macitentan 10 mg per day o.d.
# T2 construct: BCRP is an efflux pump located in the gut, liver canalicular membrane, and kidney; from tissue; host or cells: in vivo: gut, liver canalicular membrane, kidney
# T2 sequence (Q9UNQ0 1-655): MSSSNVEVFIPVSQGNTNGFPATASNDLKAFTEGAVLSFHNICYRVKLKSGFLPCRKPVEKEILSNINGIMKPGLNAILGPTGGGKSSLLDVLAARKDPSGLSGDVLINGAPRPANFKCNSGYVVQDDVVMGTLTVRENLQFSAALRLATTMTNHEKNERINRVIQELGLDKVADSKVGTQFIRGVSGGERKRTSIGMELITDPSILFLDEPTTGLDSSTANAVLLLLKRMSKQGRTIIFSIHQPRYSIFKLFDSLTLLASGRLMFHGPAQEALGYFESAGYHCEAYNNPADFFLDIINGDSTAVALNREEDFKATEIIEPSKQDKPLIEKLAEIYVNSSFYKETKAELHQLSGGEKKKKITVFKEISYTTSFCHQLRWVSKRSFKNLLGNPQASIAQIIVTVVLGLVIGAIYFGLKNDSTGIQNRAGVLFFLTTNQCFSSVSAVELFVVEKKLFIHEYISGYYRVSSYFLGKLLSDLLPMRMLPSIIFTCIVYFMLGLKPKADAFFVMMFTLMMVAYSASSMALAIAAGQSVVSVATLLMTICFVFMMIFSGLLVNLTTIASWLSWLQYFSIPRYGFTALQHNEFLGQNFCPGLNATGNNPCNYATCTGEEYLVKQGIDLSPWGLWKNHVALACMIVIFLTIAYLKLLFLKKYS
# Text: BCRP is an efflux pump located in the gut, liver canalicular membrane, and kidney, and is exposed to intracellular drug concentrations in the liver and the kidney.
# plasma ET-1 = settings: healthy human subjects; 1, 3, 10, 30 mg; cited from earlier work
# [5] = Effect of macitentan on decrease in hemoglobin concentration, pooled Phase I studies, Emax fit; assay type: in vivo, human; settings: healthy volunteers
# Text: Hemoglobin measurements were pooled from 3 Phase I clinical studies in healthy volunteers: • Study AC-055-102: Investigation of the PK, PD, safety and tolerability of macitentan in male subjects (the study protocol is described in the following publication: Sidharta et al., Safety, tolerability, pharmacokinetics, and pharmacodynamics of macitentan, an endothelin receptor antagonist, in an ascending multiple-dose study in healthy subjects. J. Clin. Pharmacol. (2013), 53(11), 1131-1138) • Study AC-055-116: Investigation of the PK, PD, safety and tolerability of macitentan in male Japanese subjects (the study protocol is described in the following publication: Yokoyama et al., Tolerability, Safety, Pharmacokinetics, and Pharmacodynamics of Macitentan, a New Endothelin Receptor Antagonist, in Healthy Japanese Male Subjects. Rinsho yakuri/Japanese Journal of Clinical Pharmacology and Therapeutics (2016), 47, 143-150) • Study AC-055-117: Investigation of the PK, PD, safety and tolerability of macitentan in male Korean subjects (the study protocol is described in the following publication: Ahn et al., Pharmacokinetic-pharmacodynamic relationships of macitentan, a new endothelin receptor antagonist, after multiple dosing in healthy Korean subjects, Am. […]
# Hemoglobin concentrations measured in the morning of Day 11 of macitentan treatment and at baseline on Day −1 were used in the analysis. […]
# [6] = rats, cited from earlier work
Structure (SMILES),CYP3A4 mRNA and enzyme activity (CYP3A4),predicted peak plasma concentration [1],expected free plasma concentration [1] [µM],drug-drug interaction [2],time to peak plasma concentration ([3]; after the first dose of macitentan),half-life ([3]; in humans),plasma concentrations relative to macitentan ([3]; in vivo),affinity for the ET receptors relative to parent compound (ET receptors),EC50 (human PXR) [µM],effect on preoperative cardiac output and PVR [4],effect on the pharmacokinetics of 1 mg rosuvastatin (BCRP transporters),plasma ET-1 concentrations at steady-state (plasma ET-1),dose at which the effect on hemoglobin decrease plateaus [5] [mg],maximum effect on hemoglobin decrease (Emax) ([5]; Day 11 vs baseline Day −1),dose of maximal or near-maximal effect ([6]; EMA Assessment Report) [mg/kg],maximal effective dose [6] [mg/kg],absorption into the plasma ([3]; in humans),time to steady state ([3]; in humans)
NS(=O)(=O)Nc1ncnc(OCCOc2ncc(Br)cn2)c1-c1ccc(Br)cc1 [ACT-132577],concentration-dependent increases,~14 µM,0.07,No Drug-Drug Interaction has been observed,about 30 hours,approximately 48 hours,higher plasma concentrations than macitentan,lower affinity,7.2 to 8.7,,,,,,,,,
CCCCC[C@H](O)/C=C/[C@@H]1[C@H]2C/C(=C/CCCC(=O)O)O[C@H]2C[C@H]1O [epoprostenol],,,,,,,,,,may significantly increase preoperative cardiac output and reduces PVR,,,,,,,,
"CCCNS(=O)(=O)Nc1ncnc(OCCOc2ncc(Br)cn2)c1-c1ccc(Br)cc1 [macitentan, propylsulfamic acid [5-(4-bromo-phenyl)-6-[2-(5-bromo-pyrimidin-2-yloxy)-ethoxy]-pyrimidin-4-yl]-amide]",concentration-dependent increases,around 5 μM,0.02,No Drug-Drug Interaction has been observed,,about 16 hours,,,1.1 to 1.2,,has not shown any effect,no further increase beyond the 10 mg oral dose,10,around 1.23 g/dL,10,30,absorbed slowly,by the third day of administration
